Data taken from ChEMBL document CHEMBL1129176, “Enantio-dependence of inducer-specific bidirectional regulation of tumor necrosis factor (TNF)-alpha production: Potent TNF- production inhibitors” (1996).

Assays:
Format in all cases: functional, Homo sapiens
HL-60 [1] = assay: Compound was evaluated for the amount of TNF-alpha produced by HL-60 cells in the presence of Okadaic acid (OA) at concentration 0.3 uM
HL-60 [2] = assay: Compound was evaluated for the amount of TNF-alpha produced by HL-60 cells in the presence of 12-O-tetradecanoylphorbol-13-acetate (TPA) at concentration 0.3 uM
HL-60 [3] = assay: Compound was evaluated for the amount of TNF-alpha produced by HL-60 cells in the presence of Okadaic acid (OA) at concentration 30 uM
HL-60 [4] = assay: Compound was evaluated for the amount of TNF-alpha produced by HL-60 cells in the presence of 12-O-tetradecanoylphorbol-13-acetate (TPA) at concentration 30 uM

Compound | Production (HL-60 [1]) [%] | Production (HL-60 [2]) [%] | Production (HL-60 [3]) [%] | Production (HL-60 [4]) [%]
C[C@@H](c1ccccc1)N1C(=O)c2c(F)c(F)c(F)c(F)c2C1=O | 70 | 143 | – | –
C[C@]1(N2C(=O)c3ccccc3C2=O)CCC(=O)NC1=O | – | – | 75 | 358
C[C@H](c1ccccc1)N1C(=O)c2c(F)c(F)c(F)c(F)c2C1=O | 2 | 97 | – | –
C[C@H](C1CCCCC1)N1C(=O)c2c(F)c(F)c(F)c(F)c2C1=O | 10 | 98 | – | –
C[C@@H](c1cccc2ccccc12)N1C(=O)c2c(F)c(F)c(F)c(F)c2C1=O | 101 | 101 | – | –
C[C@H](c1cccc2ccccc12)N1C(=O)c2c(F)c(F)c(F)c(F)c2C1=O | 2 | 100 | – | –
C[C@@H](C1CCCCC1)N1C(=O)c2c(F)c(F)c(F)c(F)c2C1=O | 65 | 124 | – | –
C[C@@]1(N2C(=O)c3ccccc3C2=O)CCC(=O)NC1=O | – | – | 39 | 103
O=C1CCC(N2C(=O)c3ccccc3C2=O)C(=O)N1 (stereo not drawn) [THALIDOMIDE] | – | – | 58 | 135
